Experimental findings from patent publication US20240309090A1, “MODULATION OF ANDROGEN SIGNALING TO INNATE IMMUNE KILLING OF PROSTATE CANCER” (Brown University, priority 2023, published 2024) are described below.

“Also recorded” adds a separate entry of the source.

In one test the test system is NK cells. The experiment in a line: Flow cytometry of NKG2A and PD-1 surface expression on NK cells. In kind it is cell-based. How it is done: (§1) PCa cells were plated at a density of 3×10^5 cells per well of a 6-well plate and adhered overnight. […] After treatment, cells were trypsinized, stained, and incubated (Cell Staining Buffer SouthernBiotech #0225-01S) with the corresponding antibody for 45-60 min at 4° C. Viability dye was added with each run. NK-92 cells and patient-derived cells were stained similarly. Markers used for experiments included: Thermofisher HLA-E Monoclonal Antibody (3D12HLA-E), Alexa Fluor™ 488, eBioscience™, CD274 (PD-L1, B7-H1) Monoclonal Antibody (MIH1), eFluor™ 450, eBioscience™, Cell Signaling PD-1 (D4W2J) XPR Rabbit mAb, SYTOX™ Orange Dead Cell Stain, for flow cytometry, BioLegend APC anti-human CD159a (NKG2A) Antibody #375108, BioLegend APC anti-human CD69 Antibody #310909, BioLegend Alexa Fluor® 647 anti-human CD137 (4-1BB) [4B4-1] #309823. For staining of the patient-derived PBMCs and subsequent NK cell characterization, the following antibodies were used: BioLegend Anti-Perforin Mouse Monoclonal Antibody (PerCP Cy5.50, clone: dG9) #308113, BioLegend Anti-Granzyme B Mouse Monoclonal Antibody (FITC, clone: GB11) #515403, BioLegend Anti-CD56 Mouse Monoclonal Antibody (Alexa Fluor® 700, clone: 5.1H1) #362521, and BioLegend (PE anti-human CD45 Antibody) #304008.
Methods: PCa cell lines (LNCaP, 22Rv1 [ARv7 mutation], DU145[AR-], PC3 [AR-]) were cocultured with NK-92 cells and treated with ARi (enzalutamide [enza] and darolutamide [daro]) or in combination with anti-NKG2A antibody monalizumab. Immune cell-mediated tumor cell killing assays and multiplexed cytokine profiling were performed. NKc expression of NKG2A and PCa cells expression of HLA-E were investigated by flow cytometry. The AR-negative cell lines (PC3 and DU145) were stably transduced with a functional AR pathway to evaluate the modulation of HLA-E by AR. The activation status of peripheral blood NKc isolated from patients with PCa before and post-initiation of androgen deprivation therapy (ADT) was investigated by flow cytometry.

In test [1] the test system is PC tumors (PC3, 22Rv1 xenograft). The experiment in a line: NK cell infiltration in subcutaneous PC tumors of treated mice. To be noted: oral, Daro 50 mg/kg/bid, Enza 30 mg/kg/bid, 4 weeks. It counts as in vivo, NCr Nude mice. The method, then: We conducted cell viability assays to investigate the effect of Enza and Daro on PC cells (LNCap, 22Rv1 [ARv7 mutation], DU145, PC3 [AR-]) and NK-92 cells. We performed co-culture experiments with PC and NK cells in a 1:1 ratio and analyzed immune cell-mediated tumor cell killing (ImageXpress Confocal HT). Cytokine profiling (Luminex 200) of culture supernatants was performed following treatment with ARi−/+ and anti-IFN-γ antibodies. In vivo studies were performed in NCr Nude mice harboring subcutaneous PC tumors treated orally with Daro (50 mg/kg/bid) and Enza (30 mg/kg/bid) for 4 weeks.
In vivo studies were performed in NCr Nude mice harboring subcutaneous PC tumors treated orally with Daro (50 mg/kg/bid) and Enza (30 mg/kg/bid) for 4 weeks.

For the next test, the system named is 22Rv1 cell line. The experiment in a line: Flow cytometry of HLA-E / PD-L1 surface expression on 22Rv1. It counts as cell-based. The note with it: for HLA-E surface expression, mean fluorescence intensity (MFI): 22Rv1, enza 15 μM, daro 20 μM, 48 h; for surface levels of HLA-E / surface levels of PD-L1: Example 2, 22Rv1. How it is done:
(§2) The effect of ARi on the NKG2A ligand, HLA-E, was investigated by flow cytometry on PCa cells treated with enza and daro.
as §1
(§3) The effect of androgen pathway inhibitors in the expression of HLA-E, a negative and key negative modulator of NK cell function, was also performed using Flow Cytometry. PD-L1 expression levels were also measured. In advance, The NK cell immune checkpoint inhibitor monalizumab (targeting NKG2A and its ligand, HLA-E) was also combined with ARi.

The subject of test [2] is PCa cell lines (DU145, 22Rv1, LNCaP, PC3). The experiment in a line: Western blot of apoptotic and antiapoptotic proteins in PCa cell lines. It counts as cell-based. To be noted: for expression of Bcl-XL: 22Rv1; for expression of c-IAP2: DU145 cells and LNCaP; for Survivin levels: LNCaP; for expression of MCL-1: any cell lines. The method, then:
We investigated the effects of ARi on PCa cells' expression of Bcl-2 proteins and cytokine secretion to assess a possible priming effect of treatment, making these cells susceptible to NK cell killing. Enzalutamide (5, 10, and 15 μM) and darolutamide (10, 20 μM) reduced the expression of the X-linked inhibitor of apoptosis (XIAP) in DU145, 22Rv1, and LNCaP cell lines (FIG. 14A-B). Western Blot analysis of apoptotic and antiapoptotic proteins on the PCa cell lines with darolutamide (10 and 20 μM) and enzalutamide ([…]) for 48 h. Treatment with ARi on the PCa cell lines evidenced changes in both pro and antiapoptotic proteins, irrespective of ARi sensitivity. The changes in protein expression were not similar in the PCa cell lines and cannot explain a single mechanism of tumor cell priming for NK cell killing.
Anti-apoptotic proteins and androgen receptor expression in prostate cancer cell lines and immune cells (NK-92) were examined using a western blot. A total of 1×10^5 cells were plated and incubated in a 6 or 12-well plate ([…] 229111 and 229105) for 24 hours to allow the cells to adhere (tumor cells). Treatment conditions were added after cell adhesion or in conjunction with NK cells when these were analyzed. Cells were harvested and lysed using RIPA buffer containing protease inhibitor (Cell Signaling Technology 9806S) and phosphatase inhibitor (PHOSS-RO Roche 4906845001). Denaturing sample buffer was added, and samples were boiled at 95° C. for 10 minutes and an equal amount of protein lysate (10-20 ug) was electrophoresed through 4-12% SDS-PAGE gels (Invitrogen) and then transferred to PVDF membranes. The membrane was blocked with 5% milk in 1×TTBS and incubated overnight with the appropriate primary antibody (Cell Signaling c-IAP2 58C7 Rabbit mAb #3130; Cell Signaling XIAP Antibody #2042; Cell Signaling Mcl-1 (D2W9E) Rabbit mAb #94296; Cell Signaling Survivin (71G4B7) Rabbit mAb; Cell Signaling Ran Antibody #4462; Cell Signaling PARP 9542T mAb; Cell Signaling Bcl-2 Antibody #2876; Cell Signaling Bcl-xL (54H6) Rabbit mAb; Sigma Aldrich Monoclonal Anti-B-Actin antibody #A5441; Cell Signaling Androgen Receptor (E3S4N) Rabbit mAb (Carboxy-terminal Antigen) #70317). The primary antibody membranes were incubated in the appropriate HRP-conjugated secondary antibody (either mouse, Thermo Scientific #31430, or rabbit, Thermo Scientific #31460) for two hours. The levels of antibody binding were detected using ECL western blotting detection reagent and the Syngene imaging system.

Another test concerns LNCaP cells. The experiment in a line: Flow cytometry of HLA-E / PD-L1 surface expression on LNCaP. It counts as cell-based. The note with it: 48 h; for HLA-E surface expression / PD-L1 expression: Example 2, LNCaP; for HLA-E surface expression, mean fluorescence intensity (MFI): LNCaP, enza 15 μM, daro 20 μM. How it is done: as §2, §1, §3
Where [3] appears, read: DU145, 22Rv1, LNCaP, enzalutamide 5, 10, 15 μM, darolutamide 10, 20 μM, 48 h.

Take `CC(O)c1cc(C(=O)N[C@@H](C)Cn2ccc(-c3ccc(C#N)c(Cl)c3)n2)n[nH]1` (some centres unmarked) [darolutamide]: the “surface expression of NKG2A” value in the test with NK cells is recorded as “modulate”. Besides, the “NK cell infiltration in the tumor microenvironment” value in test [1] is given as “increased”. In addition, in the test with 22Rv1 cell line, the “HLA-E surface expression, mean fluorescence intensity (MFI)” value (“HLA-E surface expression … (MFI)” below) is given as 30.5±2.69×10^3; the “surface levels of HLA-E” value is “did not change significantly”; the “surface levels of PD-L1” value was “did not change significantly”. For the same compound, in test [2], the “expression of Bcl-XL” value is listed as “reduced”, the “expression of c-IAP2” value is given as “reduced”, the Survivin levels result is “decreased” and the “expression of MCL-1” value is “no significant change”. In addition, in test [2] (listed as Darolutamide), the “expression of Bcl-XL” value is given as “lower levels”, the “expression of c-IAP2” value is given as “reduced levels” and the Survivin levels result is recorded as “lower levels”. Moreover, the “expression of XIAP” value in test [2] (setting [3]) is given as “reduced; also recorded: more pronounced”. The “expression of XIAP” value in test [2] (DU145, 22Rv1, LNCaP, enzalutamide 5, 10, 15 μM, darolutamide 10, 20 μM, 48 h, listed as Darolutamide) was “reduced levels”. Moreover, the “expression of XIAP” value in test [2] (PC3) is recorded as “did not change”. In addition, in the test with LNCaP cells, the HLA-E surface expression amounted to 0.8%; the PD-L1 expression result is on record as “increase”; the “HLA-E surface expression … (MFI)” value is 39.47±3.39×10^3.
Turning to `CNC(=O)c1ccc(N2C(=S)N(c3ccc(C#N)c(C(F)(F)F)c3)C(=O)C2(C)C)cc1F` [enzalutamide], in the test with NK cells, the “surface expression of NKG2A” value was “modulate”. Also, the “NK cell infiltration in the tumor microenvironment” value in test [1] is listed as “increased”. Also, in the test on 22Rv1 cell line, the “HLA-E surface expression … (MFI)” value is listed as 41.14+7.6×10^3; the “surface levels of HLA-E” value was “did not change significantly”; the “surface levels of PD-L1” value was “did not change significantly”. In test [2], the “expression of Bcl-XL” value is reported as “reduced”, the “expression of c-IAP2” value is listed as “reduced”, the Survivin levels result is “decreased” and the “expression of MCL-1” value is “no significant change”. For the same compound, in test [2] (listed as Enzalutamide), the “expression of Bcl-XL” value is given as “lower levels”, the “expression of c-IAP2” value is listed as “reduced levels” and the Survivin levels entry is listed as “lower levels”. Also, the “expression of XIAP” value in test [2] (setting [3]) is “reduced levels”. Further, in test [2] (PC3), the “expression of XIAP” value is reported as “did not change”. In addition, in the test with LNCaP cells, the HLA-E surface expression is recorded as 1.1%; the PD-L1 expression entry is “increase”; the “HLA-E surface expression … (MFI)” value is 37.38±1.7×10^3.
